Patent US11691972B2, “Compounds for targeted degradation of BRD9” (C4 Therapeutics, Inc., priority 2020, dated 2023)

Legend:
[1] = Body weight change in synovial sarcoma PDX model (SA13412); type: in vivo, mice; settings: 50 mg/kg once a day, 25 mg/kg twice a day, 16.6 mg/kg three times a day, FIG. 24
From the text: The x axis is treatment measured in days and the y axis is body weight change measured in percentage. Less than 15% loss of body weight was observed on average.

[2] = system: SW982; experiment: SW982 viability (GI50); type: cell-based; settings: Homo sapiens; SW982 cells
[3] = biological target: T1, BRD9 (Homo sapiens, UniProt Q9H8M2); experiment: In-vivo BRD9 degradation in the Yamato-SS xenograft model; settings: various concentrations and times, FIG. 12
T1 sequence (Q9H8M2 1-597): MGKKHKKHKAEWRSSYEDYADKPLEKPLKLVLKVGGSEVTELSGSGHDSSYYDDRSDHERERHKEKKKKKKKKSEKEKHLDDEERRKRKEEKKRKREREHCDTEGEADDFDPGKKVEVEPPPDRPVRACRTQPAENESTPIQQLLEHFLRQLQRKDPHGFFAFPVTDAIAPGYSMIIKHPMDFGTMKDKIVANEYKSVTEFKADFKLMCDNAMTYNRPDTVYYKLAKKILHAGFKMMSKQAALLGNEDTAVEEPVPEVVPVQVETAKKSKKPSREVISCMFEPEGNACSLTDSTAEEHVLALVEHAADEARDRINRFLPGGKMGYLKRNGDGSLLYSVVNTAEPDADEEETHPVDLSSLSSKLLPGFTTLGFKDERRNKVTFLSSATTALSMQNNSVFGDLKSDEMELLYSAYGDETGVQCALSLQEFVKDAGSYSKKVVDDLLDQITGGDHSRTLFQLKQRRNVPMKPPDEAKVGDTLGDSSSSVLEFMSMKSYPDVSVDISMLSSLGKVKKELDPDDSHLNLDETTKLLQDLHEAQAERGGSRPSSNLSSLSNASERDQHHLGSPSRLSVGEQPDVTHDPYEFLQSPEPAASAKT

[4] = biological target: CYP 2C19 (Homo sapiens, UniProt P33261); experiment: CYP inhibition 2C19; type: in vitro ADME
Sequence of CYP 2C19 (P33261 whole entry): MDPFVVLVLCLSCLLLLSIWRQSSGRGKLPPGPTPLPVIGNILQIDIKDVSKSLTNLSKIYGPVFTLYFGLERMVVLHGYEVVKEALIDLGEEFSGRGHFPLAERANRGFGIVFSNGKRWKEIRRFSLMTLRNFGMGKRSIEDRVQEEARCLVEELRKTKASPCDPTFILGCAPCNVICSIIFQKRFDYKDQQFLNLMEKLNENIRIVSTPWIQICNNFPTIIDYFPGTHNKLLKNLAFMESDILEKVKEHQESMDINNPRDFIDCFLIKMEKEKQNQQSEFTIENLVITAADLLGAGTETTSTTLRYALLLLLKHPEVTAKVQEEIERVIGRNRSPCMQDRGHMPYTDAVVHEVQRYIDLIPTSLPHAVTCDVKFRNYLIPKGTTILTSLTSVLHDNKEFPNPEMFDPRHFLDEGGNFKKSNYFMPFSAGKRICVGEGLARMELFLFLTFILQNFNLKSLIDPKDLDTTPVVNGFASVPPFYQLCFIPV

[5] = system: synovial sarcoma xenograft model; experiment: Tumor volume in a synovial sarcoma xenograft model (FIG. 1); type: in vivo
[6] = biological target: BRD9 (Rattus norvegicus, UniProt D4ACF5); experiment: BRD9 degradation in rat cells (24 h); type: cell-based
Sequence of BRD9 (Rattus norvegicus, UniProt D4ACF5) (D4ACF5 1-761): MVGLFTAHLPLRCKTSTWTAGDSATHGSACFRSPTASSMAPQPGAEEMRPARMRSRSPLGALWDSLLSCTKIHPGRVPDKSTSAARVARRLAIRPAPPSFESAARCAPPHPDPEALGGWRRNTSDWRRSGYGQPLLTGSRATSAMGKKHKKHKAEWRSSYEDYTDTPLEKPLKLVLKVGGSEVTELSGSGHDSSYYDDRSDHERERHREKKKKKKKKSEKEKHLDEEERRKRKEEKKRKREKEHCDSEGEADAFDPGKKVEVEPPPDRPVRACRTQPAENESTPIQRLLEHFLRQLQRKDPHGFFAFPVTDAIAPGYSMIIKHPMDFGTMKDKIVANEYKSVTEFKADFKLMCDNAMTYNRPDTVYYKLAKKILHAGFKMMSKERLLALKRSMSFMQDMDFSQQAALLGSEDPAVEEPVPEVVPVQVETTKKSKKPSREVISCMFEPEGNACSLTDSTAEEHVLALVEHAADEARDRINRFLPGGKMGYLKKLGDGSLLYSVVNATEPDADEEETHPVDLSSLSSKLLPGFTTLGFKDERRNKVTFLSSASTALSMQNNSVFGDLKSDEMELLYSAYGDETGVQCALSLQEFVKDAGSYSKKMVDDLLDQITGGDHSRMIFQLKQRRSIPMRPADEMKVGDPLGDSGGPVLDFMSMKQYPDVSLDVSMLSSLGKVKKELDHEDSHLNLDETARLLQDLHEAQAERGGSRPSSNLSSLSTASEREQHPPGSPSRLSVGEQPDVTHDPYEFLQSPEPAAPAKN

[7] = biological target: T1, BRD9; experiment: Western blot, in-vivo BRD9 degradation in ASKA-SS tumors; set-up: inoculated subcutaneously into BALB/c nude mice at the right flank for tumor development; from tissue; host or cells: Yamato-SS xenograft tumours in BALB/c nude mice; species or system BALB/c nude mice; settings: single dose 10 or 75 mg/kg PO, FIG. 13
Description: ASKA-SS cells were maintained in vitro until exponential growth phase and inoculated subcutaneously into BALB/c nude mice at the right flank for tumor development. Mice were treated with single dose of Compound 172 at 10 or 75 mg/kg PO. Tumor were collected at indicated time points and snap frozen until lysis. Tumors were ground and lysed in RIPA Buffer containing 2× protease/phosphatase inhibitor using a freeze grinder at 50 Hz for 5 minutes. Protein concentrations were determined by Pierce™ BCA Protein Assay Kit. Samples were diluted to appropriate concentrations and run in a western blot.

[8] = biological target: BRD9 (Mus musculus, UniProt Q3UQU0); experiment: BRD9 degradation in mouse cells (24 h); type: cell-based
Sequence of BRD9 (Mus musculus, UniProt Q3UQU0) (Q3UQU0 whole entry): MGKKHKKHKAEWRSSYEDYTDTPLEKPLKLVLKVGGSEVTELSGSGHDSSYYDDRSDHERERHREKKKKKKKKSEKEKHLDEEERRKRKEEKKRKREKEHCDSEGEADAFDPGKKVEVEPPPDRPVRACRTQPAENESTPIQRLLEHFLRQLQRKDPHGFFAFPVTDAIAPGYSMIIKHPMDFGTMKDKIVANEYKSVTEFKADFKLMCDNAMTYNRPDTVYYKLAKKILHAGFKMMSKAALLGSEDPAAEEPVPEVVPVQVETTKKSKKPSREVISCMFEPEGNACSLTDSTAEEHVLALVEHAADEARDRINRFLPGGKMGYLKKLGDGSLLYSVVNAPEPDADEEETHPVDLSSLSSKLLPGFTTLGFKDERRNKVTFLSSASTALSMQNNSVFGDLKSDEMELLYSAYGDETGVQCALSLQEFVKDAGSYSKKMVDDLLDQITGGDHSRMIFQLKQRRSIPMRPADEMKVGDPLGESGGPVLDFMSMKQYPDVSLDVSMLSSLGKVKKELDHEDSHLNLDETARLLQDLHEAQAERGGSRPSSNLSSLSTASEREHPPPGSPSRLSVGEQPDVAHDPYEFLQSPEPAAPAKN

[9] = biological target: T1, BRD9; experiment: BRD9 binding (Ki)
[10] = biological target: BRD9-E3 (Homo sapiens, UniProt Q96SW2+Q9H8M2); experiment: BRD9-E3 dimerization; type: biochemical; settings: not explained
Sequence of BRD9-E3 (Q96SW2 whole entry, one chain of several): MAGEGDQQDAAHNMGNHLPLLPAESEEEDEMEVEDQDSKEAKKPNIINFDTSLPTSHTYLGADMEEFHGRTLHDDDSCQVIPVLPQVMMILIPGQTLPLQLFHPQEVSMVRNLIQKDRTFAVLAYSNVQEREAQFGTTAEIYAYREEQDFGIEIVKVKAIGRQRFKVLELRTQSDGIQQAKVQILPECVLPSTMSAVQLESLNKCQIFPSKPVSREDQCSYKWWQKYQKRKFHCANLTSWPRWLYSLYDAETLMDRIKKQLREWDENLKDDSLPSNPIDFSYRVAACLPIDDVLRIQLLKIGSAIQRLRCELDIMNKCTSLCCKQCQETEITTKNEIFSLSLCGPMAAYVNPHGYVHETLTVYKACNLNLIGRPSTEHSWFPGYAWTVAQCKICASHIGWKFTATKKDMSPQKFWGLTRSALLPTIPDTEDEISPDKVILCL

[11] = biological target: T2, BRD7 (Homo sapiens, UniProt Q9NPI1); experiment: BRD7 degradation (24 h), HiBiT 293T.167 cells; type: cell-based
T2 construct: endogenously expressing BRD7 with HiBiT fusion tag via CRISPR; host or cells: 293T.167 (BRD7-HiBiT), also expressing LgBiT ectopically
T2 sequence (Q9NPI1 whole entry, the tested form may be a part): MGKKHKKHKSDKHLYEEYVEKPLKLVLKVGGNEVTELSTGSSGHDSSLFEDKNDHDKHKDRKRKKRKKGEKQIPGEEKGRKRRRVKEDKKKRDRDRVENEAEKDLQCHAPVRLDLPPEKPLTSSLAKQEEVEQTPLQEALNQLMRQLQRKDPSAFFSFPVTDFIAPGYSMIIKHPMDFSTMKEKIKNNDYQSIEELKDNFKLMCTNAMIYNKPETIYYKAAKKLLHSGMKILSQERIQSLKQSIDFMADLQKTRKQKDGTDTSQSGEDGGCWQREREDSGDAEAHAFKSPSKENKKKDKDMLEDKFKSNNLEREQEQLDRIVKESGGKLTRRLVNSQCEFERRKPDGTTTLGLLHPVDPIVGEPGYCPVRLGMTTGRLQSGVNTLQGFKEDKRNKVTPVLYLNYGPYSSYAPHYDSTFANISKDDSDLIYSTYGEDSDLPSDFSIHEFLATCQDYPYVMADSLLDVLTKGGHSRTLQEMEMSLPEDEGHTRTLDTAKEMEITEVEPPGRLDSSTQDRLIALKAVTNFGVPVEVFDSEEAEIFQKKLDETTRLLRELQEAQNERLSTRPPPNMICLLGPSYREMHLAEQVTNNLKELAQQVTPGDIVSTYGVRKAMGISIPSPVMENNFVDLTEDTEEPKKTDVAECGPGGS
From the text: (§1) Dulbecco's modified Eagle medium (DMEM) without phenol red and fetal bovine serum (FBS) were purchased from Gibco (Grand Island, N.Y., USA). Nano-Glo® HiBiT Lytic Assay System was purchased from Promega (Madison, Wis., USA). 293T.166 (BRD9-HiBiT) cell line, endogenously expressing BRD9 with HiBiT fusion tag via CRISPR and ectopically expressing LgBiT tag, was purchased from Promega (Madison, Wis., USA). 293T.167 (BRD7-HiBiT) cell line, endogenously expressing BRD7 with HiBiT fusion tag via CRISPR and ectopically expressing LgBiT tag, was purchased from Promega (Madison, Wis., USA). 293T.92 (BRD4-HiBiT) cell line, endogenously expressing BRD4 with HiBiT fusion tag via CRISPR and ectopically expressing LgBiT tag, was generated in-house. Cell culture flasks and 384-well microplates were acquired from VWR (Radnor, Pa., USA).
(§2) BRD9 degradation was determined based on quantification of luminescent signal using Nano-Glo® HiBiT Lytic Assay kit. Test compounds were added to the 384-well plate from a top concentration of 10 μM with 11 points, half log titration in duplicates. 293T.166 cells were added into 384-well plates at a cell density of 10,000 cells per well. […] BRD7 and BRD4 degradation was similarly determined with 293T.167 cells and 293T.92 cells, respectively. […] Luminescence was acquired on EnVision™ Multilabel Reader (PerkinElmer, Santa Clara, Calif., USA).

[12] = biological target: CYP 1A2 (Homo sapiens, UniProt P05177); experiment: CYP inhibition 1A2; type: in vitro ADME
Sequence of CYP 1A2 (P05177 whole entry): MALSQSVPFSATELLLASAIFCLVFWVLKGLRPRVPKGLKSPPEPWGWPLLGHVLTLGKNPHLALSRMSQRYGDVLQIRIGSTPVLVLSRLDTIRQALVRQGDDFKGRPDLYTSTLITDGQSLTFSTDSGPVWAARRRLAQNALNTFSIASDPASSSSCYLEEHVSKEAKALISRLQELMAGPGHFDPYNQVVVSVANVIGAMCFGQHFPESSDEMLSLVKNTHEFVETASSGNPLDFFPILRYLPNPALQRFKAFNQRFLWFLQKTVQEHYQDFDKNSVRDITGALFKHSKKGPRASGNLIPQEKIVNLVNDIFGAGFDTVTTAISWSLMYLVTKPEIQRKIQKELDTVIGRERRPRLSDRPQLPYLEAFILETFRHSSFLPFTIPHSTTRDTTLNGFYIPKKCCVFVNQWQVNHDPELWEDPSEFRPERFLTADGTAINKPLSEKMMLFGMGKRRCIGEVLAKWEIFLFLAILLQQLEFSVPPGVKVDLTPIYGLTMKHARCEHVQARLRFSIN

[13] = biological target: T3, BRD4 (Homo sapiens, UniProt O60885); experiment: BRD4 degradation (24 h), HiBiT 293T.92 cells; type: cell-based
T3 construct: endogenously expressing BRD4 with HiBiT fusion tag via CRISPR; endogenous in cells; host or cells: 293T.92 (BRD4-HiBiT), generated in-house, also expressing LgBiT ectopically
From the text: as §1, §2

| SMILES | loss of body weight on average [1] | GI50 [2] | in-vivo BRD9 degradation (normalized concentration) [3] | IC50 [4] | tumor volume after treatment [5] | BRD9 degradation rat cells (24 h), percent [6] | DC50 ([6]; read-out: BRD9 degradation rat cells (24 h), concentration) | in-vivo BRD9 degradation, western blot [7] | BRD9 degradation mouse cells (24 h), percent [8] | DC50 ([8]; read-out: BRD9 degradation mouse cells (24 h), concentration) | Ki [9] | BRD9-E3 dimerization, first value ([10]; first of three values) | BRD9-E3 dimerization, second value ([10]; second of three values) | BRD9-E3 dimerization, third value ([10]; third of three values) | Emax [11] | DC50 ([11]; 24 h, read-out: BRD7 degradation (24 h), IP) | IC50 [12] | Emax [13] | DC50 ([13]; 24 h, read-out: BRD4 degradation (24 h), IP) |
| --- | --- | --- | --- | --- | --- | --- | --- | --- | --- | --- | --- | --- | --- | --- | --- | --- | --- | --- | --- |
| COc1cc(-c2cn(C)c(=O)c(C)c2C)cc(OC)c1CN1CCC(N2CCN(c3ccc(NC4CCC(=O)NC4=O)cc3F)CC2)C(F)(F)C1 (single isomer, unassigned) [Compound 176, 3-[4-[4-[1-[[2,6-dimethoxy-4-(1,4,5-trimethyl-6-oxo-3-pyridyl)phenyl]methyl]-3,3-difluoro-4-piperidyl]piperazin-1-yl]-3-fluoro-anilino]piperidine-2,6-dione] | Less than 15% |  |  |  |  |  |  |  |  |  |  |  |  |  |  |  |  |  |  |
| COc1cc(-c2cn(C)c(=O)c(C)c2C)cc(OC)c1CN1CCC(N2CCN(c3ccc(NC4CCC(=O)NC4=O)cc3F)CC2)C(F)(F)C1 (stereo not shown) [Compound 172, 3-[4-[4-[1-[[2,6-dimethoxy-4-(1,4,5-trimethyl-6-oxo-3-pyridyl)phenyl]methyl]-3,3-difluoro-4-piperidyl]piperazin-1-yl]-3-fluoro-anilino]piperidine-2,6-dione] |  | > 10 µM | dose dependent in-vivo BRD9 degradation | 30 µM | strong effect | 53% | 1 µM | dose dependent in-vivo BRD9 degradation | 36% | 0.099 µM | 0.082 µM | 120 nM | 461 nM | 13% | 100% | > 9.99 µM | 30 µM | 81% | 2 µM |
